Results: PubChem BioAssay AID2060327 (Molecular Pharmacology Branch, DTP, NCI, 2025)
Where “and” joins values, the source holds several entries; their conditions need not be identical. Identical values can stand only once.

System: PC-3 multi-cell spheroids, viability
Test: Anticancer human tumor PC-3 cell line growth inhibition [IpAb];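 further: spheroids exposed to compounds for 7 days before readout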;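 on viability, T/C: 100% = DMSO vehicle control wells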
Details: for viability, T/C: stronger effect = lower value; active means viability on the fitted dose curve at most 10% of control; inactive means the rest
Description: Combinatorial screen of targeted agents with ipatasertib and abemaciclib in multi-cell type tumor spheroids
A high-throughput screen of multi-cell type tumor spheroids was designed to identify active combinations of targeted small molecules and ipatasertib or abemaciclib. Complex spheroids include a stromal component modeled by human endothelial cells (HUVEC) and fibroblasts modeled by human mesenchymal stem cells (MSCs). The concentration ranges selected for each drug and investigational agent were based upon clinically achievable concentrations if the clinical Cmax of the agent was known.
Compounds. The drugs and investigational agents: ipatasertib (NSC767898), abemaciclib(NSC768073), selumetinib (NSC741078), trametinib (758246), adavosertib (NSC754352), everolimus (NSC733504), sapanisertib (NSC764658), vemurafenib (NSC761431), venetoclax (NSC766270), copanlisib (NSC809693), apelisib (NSC765974), palbociblib (NSC758247), vemurafenib (NSC761431), dabrafenib (NSC764134), ravoxertinib (NSC781343), BMS-387032 (NSC767048), sotorasib (NSC818433), talazoparib (NSC767125) and afursertib (NSC778305), were obtained from the National Cancer Institute (NCI) Developmental Therapeutics Program Chemical Repository. The FDA-approved anticancer drug set is available from the NCI Developmental Therapeutics Program. […] The stock solutions were prepared in dimethyl sulfoxide (DMSO, Sigma-Aldrich, St. Louis, MO, cat. D2650) at 800-fold the tested concentration and stored at -70 degrees C prior to their use. All drugs and investigational agents were tested over a range starting from a high concentration at or near the clinical Cmax and decreasing in half-log increments. If the clinical Cmax for an agent had not been determined, the highest concentration tested was 10 microM.
NCI60 Cell Culture. NCI60 cell lines were obtained from the NCI Developmental Therapeutics Program Tumor Repository. For each lot of cells, the Repository performed Applied Biosystems AmpFLSTR Identifiler testing with PCR amplification to confirm consistency with the published Identifier STR profile for each cell line. Cells were kept in continuous culture for no more than 20 passages. The optimal seeding densities for each of the cell lines at each time point assessed were determined prior to performing the concentration response studies. Briefly, the NCI60 human tumor lines were grown as monolayers in RPMI 1640 medium supplemented with 10% FBS and 2 mmol/L L-glutamine.
An additional 9 lines were from the NCI60 cell line panel including MDA-MB-231 breast carcinoma, MDA-MB-468 breast carcinoma, MCF7 breast carcinoma, Hs578T breast carcinoma, MALME-3M melanoma, SK-MEL-2 melanoma, SK-OV-3 ovarian carcinoma, DU-145 prostate carcinoma, PC-3 prostate carcinoma, all cell lines along with major genetic alterations are listed on Table 2. Pooled donor human umbilical vein endothelial cells (HUVEC, Lonza, cat. CC-2519) and human mesenchymal stem cells (hMSC, Lonza, cat. PT-2501) were purchased from Lonza (Walkersville, MD).
PDMR cell lines were grown in complete medium (DC medium): Dulbecco's modified Eagle's medium (DMEM)/F12 supplemented with 5% fetal bovine serum (FBS), 2 mM L-glutamine, 100 U/mL penicillin and 100 µg/ml streptomycin, 0.4 µg/ml hydrocortisone, 10 ng/ml epidermal growth factor (EGF) recombinant human protein, 24 µg/mL adenine, and 0.1 mg/mL primocin. During culture from frozen stock vials, PDMR cells were cultured in the same medium containing 10 µM Y-27632 (see Table 3). The PDCs were cultured in complete DMEM/F12 media without 10 microM Y-27632 dihydrochloride for at least two passages prior to the screen. The pooled donor HUVEC and hMSC were cultured in endothelial cell growth medium 2 (PromoCell, Heidelberg, Germany, cat. C-22011) and mesenchymal stem cell growth medium 2 (PromoCell, cat. C-28009), respectively. For all experiments, HUVEC and hMSC were used at passages </=5.
[…]

[1] = curve of first compound, second compound 0.1 µM
[2] = curve of first compound, second compound 0.316 µM
[3] = curve of first compound, second compound 1 µM
[4] = curve of first compound, second compound 3.16 µM
[5] = curve of first compound, second compound 10 µM
[6] = second compound 0.1 µM, first compound 0.0316 µM
[7] = second compound 0.1 µM, first compound 0.1 µM
[8] = second compound 0.316 µM, first compound 0.0316 µM
[9] = second compound 0.316 µM, first compound 0.1 µM
[10] = second compound 1 µM, first compound 0.0316 µM
[11] = second compound 1 µM, first compound 0.1 µM
[12] = second compound 3.16 µM, first compound 0.0316 µM
[13] = second compound 3.16 µM, first compound 0.1 µM
[14] = second compound 10 µM, first compound 0.0316 µM
[15] = second compound 10 µM, first compound 0.1 µM

C=CCn1c(=O)c2cnc(Nc3ccc(N4CCN(C)CC4)cc3)nc2n1-c1cccc(C(C)(C)O)n1
inactive: viability, T/C (compound 0.0316 µM) 102% and 104% | viability, T/C (compound 0.1 µM) 94% and 92.4% | viability, T/C (compound 0.316 µM) 68.1% and 67.3% | viability, T/C (compound 1 µM) 23.1% and 31.4% | viability, T/C (compound 3.16 µM) 26.6% and 22.3% | viability, T/C (compound 10 µM) 26.4% and 23.9%
515 nM and 548 nM: IC50 (curve of compound)

C=CC(=O)N1CCN(c2nc(=O)n(-c3c(C)ccnc3C(C)C)c3nc(-c4c(O)cccc4F)c(F)cc23)C(C)C1 (centres undefined) + CC(C)NCC(C(=O)N1CCN(c2ncnc3c2C(C)CC3O)CC1)c1ccc(Cl)cc1
> 10000 nM: IC50 [1]
< 31.6 nM: IC50 [2] | IC50 [3] | IC50 [4] | IC50 [5]
inactive: viability, T/C [6] 82% | viability, T/C [7] 73.5% | viability, T/C (second compound 0.1 µM, first compound 0.316 µM) 72.8% | viability, T/C (second compound 0.1 µM, first compound 1 µM) 83.6% | viability, T/C (second compound 0.1 µM, first compound 3.16 µM) 99.1% | viability, T/C (second compound 0.1 µM, first compound 10 µM) 87.2% | viability, T/C [8] 44.4% | viability, T/C [9] 44.4% | viability, T/C (second compound 0.316 µM, first compound 0.316 µM) 43.7% | viability, T/C (second compound 0.316 µM, first compound 1 µM) 34.7% | viability, T/C (second compound 0.316 µM, first compound 3.16 µM) 41.7% | viability, T/C (second compound 0.316 µM, first compound 10 µM) 43.1% | viability, T/C [10] 26.5% | viability, T/C [11] 27.1% | viability, T/C (second compound 1 µM, first compound 0.316 µM) 27% | viability, T/C (second compound 1 µM, first compound 1 µM) 25.8% | viability, T/C (second compound 1 µM, first compound 3.16 µM) 26.3% | viability, T/C (second compound 1 µM, first compound 10 µM) 23.2% | viability, T/C [12] 15.1% | viability, T/C [13] 15% | viability, T/C (second compound 3.16 µM, first compound 0.316 µM) 15.5% | viability, T/C (second compound 3.16 µM, first compound 1 µM) 15.6% | viability, T/C (second compound 3.16 µM, first compound 3.16 µM) 17.1% | viability, T/C (second compound 3.16 µM, first compound 10 µM) 13.1% | viability, T/C [14] 14.6% | viability, T/C [15] 13.7% | viability, T/C (second compound 10 µM, first compound 0.316 µM) 13.4% | viability, T/C (second compound 10 µM, first compound 1 µM) 14% | viability, T/C (second compound 10 µM, first compound 3.16 µM) 14.5% | viability, T/C (second compound 10 µM, first compound 10 µM) 7.96%

Cn1ncnc1[C@H]1c2n[nH]c(=O)c3cc(F)cc(c23)N[C@@H]1c1ccc(F)cc1 + CC(C)NCC(C(=O)N1CCN(c2ncnc3c2C(C)CC3O)CC1)c1ccc(Cl)cc1
< 0.316 nM: IC50 [2] | IC50 [3] | IC50 [4] | IC50 [5]
inactive: viability, T/C (second compound 0.1 µM, first compound 0.000316 µM) 78.5% | viability, T/C (second compound 0.1 µM, first compound 0.001 µM) 71.4% | viability, T/C (second compound 0.1 µM, first compound 0.00316 µM) 52.4% | viability, T/C (second compound 0.1 µM, first compound 0.01 µM) 51.8% | viability, T/C [6] 51.6% | viability, T/C [7] 40.1% | viability, T/C (second compound 0.316 µM, first compound 0.000316 µM) 47.1% | viability, T/C (second compound 0.316 µM, first compound 0.001 µM) 43.8% | viability, T/C (second compound 0.316 µM, first compound 0.00316 µM) 42.9% | viability, T/C (second compound 0.316 µM, first compound 0.01 µM) 40.3% | viability, T/C [8] 37.9% | viability, T/C [9] 32.8% | viability, T/C (second compound 1 µM, first compound 0.000316 µM) 25.3% | viability, T/C (second compound 1 µM, first compound 0.001 µM) 23.3% | viability, T/C (second compound 1 µM, first compound 0.00316 µM) 25.2% | viability, T/C (second compound 1 µM, first compound 0.01 µM) 18.4% | viability, T/C [10] 19.9% | viability, T/C [11] 18.7% | viability, T/C (second compound 3.16 µM, first compound 0.000316 µM) 14.2% | viability, T/C (second compound 3.16 µM, first compound 0.001 µM) 14.1% | viability, T/C (second compound 3.16 µM, first compound 0.00316 µM) 14.7% | viability, T/C (second compound 3.16 µM, first compound 0.01 µM) 13.1% | viability, T/C [12] 13.2% | viability, T/C [13] 13.8% | viability, T/C (second compound 10 µM, first compound 0.000316 µM) 14.8% | viability, T/C (second compound 10 µM, first compound 0.001 µM) 14% | viability, T/C (second compound 10 µM, first compound 0.00316 µM) 13.3% | viability, T/C (second compound 10 µM, first compound 0.01 µM) 11% | viability, T/C [14] 11.6% | viability, T/C [15] 11.3%
13.3 nM: IC50 [1]

CC(C)n1nc(-c2ccc3oc(N)nc3c2)c2c(N)ncnc21
active: viability, T/C (compound 0.1 µM) 9.65% and 10.2%
1.71 nM and 3.89 nM: IC50 (curve of compound)
inactive: viability, T/C (compound 0.000316 µM) 93% and 98.7% | viability, T/C (compound 0.001 µM) 55.6% and 81.3% | viability, T/C (compound 0.00316 µM) 42.7% and 57.6% | viability, T/C (compound 0.01 µM) 25.8% and 25% | viability, T/C (compound 0.0316 µM) 11.9% and 12.8%
